{"source": "patent US20230210732A1", "about": "“REDUCTIVE TEETH WHITENING UTILIZING SALTS OF DITHIONITE” (CAO Group, Inc., priority 2022, published 2023)", "test": "whitening of stained extracted teeth, color scored against a classical VITA shade guide", "settings": "for tooth whitening (color vs classical VITA shade guide): teeth left in solution overnight, all teeth", "excerpt": "To evaluate these solutions, a collection of extracted teeth was examined and selected for dark color stains ranging from light yellow to brown. These teeth were then categorized and scored for color by comparing to a classical VITA shade guide. Then half of the teeth were then placed in a fresh solution of 15% sodium dithionite in water with unadjusted pH. The second half were placed in the solution adjusted to above pH 10. All teeth became whiter after remaining in solution overnight, especially light yellow to yellow stained teeth.", "data": [{"smiles": "O=S([O-])S(=O)[O-].[Na+].[Na+]", "note": "[sodium dithionite]", "values": [{"measurement": "tooth whitening of brown stained teeth", "setting": "15% sodium dithionite in water (unadjusted pH or above pH 10), overnight, brown teeth, less effect than light yellow to yellow teeth", "result": "whitened significantly"}, {"measurement": "tooth whitening (color vs classical VITA shade guide)", "setting": "15% sodium dithionite solution adjusted to above pH 10", "result": "became whiter"}, {"measurement": "tooth whitening (color vs classical VITA shade guide)", "setting": "fresh solution of 15% sodium dithionite in water, unadjusted pH", "result": "became whiter"}]}]}
